Earlier results as cited in patent US7368249B2, “Methods and compositions for evaluation and modulation of fertility” (The Curators of the University of Missouri, priority 2003, dated 2008).

Test system: maturing reticulocytes
Conditions: presence vs absence of ETYA

CCCCCC#CCC#CCC#CCC#CCCCC(=O)O [ETYA, 5,8,11,14-eicosatetraynoic acid]
mitochondrial degradation in maturing reticulocytes: delayed
